Where two headings read alike, the source gives them in different places.
Tested on: Mut6 cells (TD-NSC)
Test: luminescence-based Celltiter-Glo cell viability assay (ATP levels) on Mut6 tumor derived neuronal stem cells
Parameters: species or system mouse
Settings: ATP activity as measure of viability, 96 hours; for EC50: Mus musculus, read-out: EC50 (TD-NSC)
From the text: A mouse colony with 100% incidence of GBM and with conditional knockout of p53, pTEN and NF1 genes (Mut6; glioblastoma) was used to isolate primary neuronal stem cells from GBM tumors cultured in 5% Oxygen and in serum free media with defined growth factors. Primary cells from multiple tumors were pooled for high throughput screening with controls against the University of Texas Southwestern (UTSW) compound file, which encompasses ˜200,000 synthetic compounds that represent a large chemical space from several commercial vendors, including 1200 marketed drugs from the Prestwick Chemical Library®, and 600 compounds that went to pre-clinical tests from the NIH library.
A luminescence-based Celltiter-Glo® assay was performed to measure cell viability, using ATP levels as the readout. In brief, opaque-walled multiwell plates with Mut6 cells in culture medium (25 μl per well, 384-well plates) were prepared. Control wells containing medium without cells were prepared to obtain a value for background luminescence. Test compounds were added to experimental wells, and incubated according to culture protocol. The plate and its contents were incubated at 37° C., 5% […] for 96 hours. An ATP standard curve was generated immediately prior to adding the CellTiter-Glo® Reagent. A volume of CellTiter-Glo® Reagent equal to the volume of cell culture medium present in each well (25 μl of reagent to 25 μl of medium containing cells for a 384-well plate) was added. The contents were mixed for 2 minutes on an orbital shaker to induce cell lysis. The plate was allowed to incubate at room temperature for 10 minutes to stabilize the luminescent signal and luminescence recorded. (e.g. GloMax®, Lumistar, SPECTROstar, PHERAstar FS).
Compound 4C12 served as initial lead compound for analog development and for additional studies. […] See Wager, T T et al, “Moving beyond rules: the development of a central nervous system multi-parameter-optimization (CNS MPO) approach to enable alignment of drug-like properties,” ACS Chem. Neurosci. 1(6): 435-49 (2010). IC50 curves for the analog compounds plotted as ATP activity (y axis, a measure of viability) vs. concentration (nM) (x-axis) are shown in FIG. 9.

EC50 (96 h) [nM]	SMILES	other results
	CC(C)(C)OC(=O)N1CCN(CCNC(=O)c2ccc(Sc3ccc(F)cc3)c([N+](=O)[O-])c2)CC1 [DS-2-127, Tert-butyl 4-(2-(4-((4-fluorophenyl)thio)-3-nitrobenzamido)ethyl)piperazine-1-carboxylate]	EC50 (TD-NSC) (nM): Not Active
> 1000	CCN1CCCC1CNC(=O)c1ccc([S+]([O-])c2ccc(F)cc2)c([N+](=O)[O-])c1 (centres unmarked) [DS-1-135, N-((1-ethylpyrrolidin-2-yl)methyl)-4-((4-fluorophenyl)sulfinyl)-3-nitrobenzamide]	
49	C#CCN(CC)CCNC(=O)c1ccc(Sc2ccc(F)cc2)c([N+](=O)[O-])c1 [DS-2-035, N-(2-(ethyl(prop-2-yn-1-yl)amino)ethyl)-4-((4-fluorophenyl)thio)-3-nitrobenzamide]	
36	CCN1CCCC1CNC(=O)c1ccc(Oc2ccc(F)cc2)c([N+](=O)[O-])c1 (centres unmarked) [DS-1-103, N-((1-ethylpyrrolidin-2-yl)methyl)-4-(4-fluorophenoxy)-3-nitrobenzamide]	
233	CCN1CCCC1CNC(=O)c1ccc(C(=O)c2ccc(F)cc2)c([N+](=O)[O-])c1 (centres unmarked) [DS-2-057, N-((1-ethylpyrrolidin-2-yl)methyl)-4-(4-fluorobenzoyl)-3-nitrobenzamide]	
63	CCN1CCCC1CNC(=O)c1ccc(Sc2ccc(F)cc2)c(N=[N+]=[N-])c1 (centres unmarked) [ww3-57, 3-azido-N-((1-ethylpyrrolidin-2-yl)methyl)-4-((4-fluorophenyl)thio)benzamide]	
> 1000	O=C(NCc1ccccn1)c1ccc(Sc2ccc(F)cc2)c([N+](=O)[O-])c1 [DS-1-023, 4-((4-fluorophenyl)thio)-3-nitro-N-(pyridin-2-ylmethyl)benzamide]	
192	CCN1CCCC1CNC(=O)c1ccc(Sc2ccc(F)cc2)c(N)c1 (centres unmarked) [DS-1-225, 3-amino-N-((1-ethylpyrrolidin-2-yl)methyl)-4-((4-fluorophenyl)thio)benzamide]	
40000	CN(CCNC(=O)CCCC[C@@H]1SC[C@@H]2NC(=O)N[C@@H]21)CCNC(=O)c1ccc(Sc2ccc(F)cc2)c([N+](=O)[O-])c1 [DS-1-205]	
> 1000	CCN1CCCC1CNC(=O)c1ccc(NS(=O)(=O)c2ccc(F)cc2)c([N+](=O)[O-])c1 (centres unmarked) [DS-1-213, N-((1-ethylpyrrolidin-2-yl)methyl)-4-(4-fluorophenylsulfonamido)-3-nitrobenzamide]	
> 1000	CC[N+]1(C)CCCC1CNC(=O)c1ccc(Sc2ccc(F)cc2)c([N+](=O)[O-])c1 (centres unmarked) [DS-1-119, 1-ethyl-2-((4-((4-fluorophenyl)thio)-3-nitrobenzamido)methyl)-1-methylpyrrolidin-1-ium Iodide]	
> 1000	O=C(NCC1CCCO1)c1ccc(Sc2ccc(F)cc2)c([N+](=O)[O-])c1 (centres unmarked) [DS-1-275, 4-((4-fluorophenyl)thio)-3-nitro-N-((tetrahydrofuran-2-yl)methyl)benzamide]	
68	CCN1CCCC1CNC(=O)c1ccc(Sc2ccc(Cl)cc2Cl)c([N+](=O)[O-])c1 (centres unmarked) [JCH-120, 4-((2,4-dichlorophenyl)thio)-N-((1-ethylpyrrolidin-2-yl)methyl)-3-nitrobenzamide]	
> 1000	C#CCN(CC)CCNC(=O)c1ccc(C(=O)c2ccc(F)cc2)c([N+](=O)[O-])c1 [DS-2-107, N-(2-(ethyl(prop-2-yn-1-yl)amino)ethyl)-4-(4-fluorobenzoyl)-3-nitrobenzamide]	
239	C#CCN(CC)CCNC(=O)c1ccc(Sc2ccc(F)cc2)c(N=[N+]=[N-])c1 [ww3-77, 3-azido-N-(2-(ethyl(prop-2-yn-1-yl)amino)ethyl)-4-((4-fluorophenyl)thio)benzamide]	
> 1000	CCOC(=O)c1cc(F)ccc1Sc1ccc(C(=O)NCC2CCCN2CC)cc1[N+](=O)[O-] (centres unmarked) [DS-1-265, Ethyl 2-((4-(((1-ethylpyrrolidin-2-yl)methyl)carbamoyl)-2-nitrophenyl)thio)-5-fluorobenzoate]	
> 1000	C#CCN(CC)CCNC(=O)c1ccc(Oc2ccccc2C(=O)c2ccccc2)c([N+](=O)[O-])c1 [DS-2-101, 4-(2-benzoylphenoxy)-N-(2-(ethyl(prop-2-yn-1-yl)amino)ethyl)-3-nitrobenzamide]	
> 1000	C#CCOc1ccc(Sc2ccc(C(=O)NCCN(CC)Cc3ccc(C(=O)c4ccccc4)cc3)cc2[N+](=O)[O-])cc1 [DS-2-093, N-(2-((4-benzoylbenzyl)(ethyl)amino)ethyl)-3-nitro-4-((4-(prop-2-yn-1-yloxy)phenyl)thio)benzamide]	

EC50 (96 h) [nM]	SMILES	other results
269	C#CCOc1ccc(Sc2ccc(C(=O)NCC3CCCN3CC)cc2[N+](=O)[O-])cc1 (centres unmarked) [DS-1-261, N-((1-ethylpyrrolidin-2-yl)methyl)-3-nitro-4-((4-(prop-2-yn-1-yloxy)phenyl)thio)benzamide]	
119	CCN1CCCC1CNC(=O)c1ccc(Sc2ccccc2OC)c([N+](=O)[O-])c1 (centres unmarked) [JCH-117, N-((1-ethylpyrrolidin-2-yl)methyl)-4-((2-methoxyphenyl)thio)-3-nitrobenzamide]	
564	CCN1CCCC1CNC(=O)c1ccc(C(O)c2ccc(F)cc2)c([N+](=O)[O-])c1 (centres unmarked) [DS-2-051, N-((1-ethylpyrrolidin-2-yl)methyl)-4-((4-fluorophenyl)(hydroxy)methyl)-3-nitrobenzamide]	
	CCN1CCCC1CNC(=O)c1ccc(Sc2ccc([N+](=O)[O-])cc2)c([N+](=O)[O-])c1 (centres unmarked) [DS-1-137, N-((1-ethylpyrrolidin-2-yl)methyl)-3-nitro-4-((4-nitrophenyl)thio)benzamide]	EC50: 69 nM
340	CCN1CCCC1CNC(=O)c1ccc(Sc2ccc(N)cc2)c([N+](=O)[O-])c1 (centres unmarked) [DS-1-177, 4-((4-aminophenyl)thio)-N-((1-ethylpyrrolidin-2-yl)methyl)-3-nitrobenzamide]	
154	CCN1CCCC1CNC(=O)c1ccc(Sc2ccccc2CO)c([N+](=O)[O-])c1 (centres unmarked) [JCH-149, N-((1-ethylpyrrolidin-2-yl)methyl)-4-((2-(hydroxymethyl)phenyl)thio)-3-nitrobenzamide]	
119	CCN1CCCC1CNC(=O)c1ccc(Sc2ccccc2Cl)c([N+](=O)[O-])c1 (centres unmarked) [JCH-111, 4-((2-chlorophenyl)thio)-N-((1-ethylpyrrolidin-2-yl)methyl)-3-nitrobenzamide]	
155	CCN1CCCC1CNS(=O)(=O)c1ccc(Sc2ccc(F)cc2)c([N+](=O)[O-])c1 (centres unmarked) [DS-2-055, N-((1-ethylpyrrolidin-2-yl)methyl)-4-((4-fluorophenyl)thio)-3-nitrobenzenesulfonamide]	
287	CN1CCN(CCNC(=O)c2ccc(Sc3ccc(F)cc3)c([N+](=O)[O-])c2)CC1 [DS-2-121, 4-((4-fluorophenyl)thio)-N-(2-(4-methylpiperazin-1-yl)ethyl)-3-nitrobenzamide]	
> 1000	C#CCN(CC)CCNC(=O)c1ccc(Oc2ccc(C(=O)c3ccccc3)cc2)c([N+](=O)[O-])c1 [DS-2-097, 4-(4-benzoylphenoxy)-N-(2-(ethyl(prop-2-yn-1-yl)amino)ethyl)-3-nitrobenzamide]	
161	C#CCN(CCNC(=O)c1ccc(Sc2ccc(F)cc2)c([N+](=O)[O-])c1)CCOC(=O)c1ccc(C(=O)c2ccccc2)cc1 [ww3-80, 2-((2-(4-((4-fluorophenyl)thio)-3-nitrobenzamido)ethyl)(prop-2-yn-1-yl)amino)ethyl 4-benzoylbenzoate]	
> 1000	C#CCOc1ccc(Sc2ccc(C(=O)NCCNCC)cc2[N+](=O)[O-])cc1 [DS-2-111, N-(2-(ethylamino)ethyl)-3-nitro-4-((4-(prop-2-yn-1-yloxy)phenyl)thio)benzamide]	
118	CCN1CCCC1CNC(=O)c1ccc(Sc2ccc(F)c(F)c2)c([N+](=O)[O-])c1 (centres unmarked) [DS-1-067, 4-((3,4-difluorophenyl)thio)-N-((1-ethylpyrrolidin-2-yl)methyl)-3-nitrobenzamide]	
301	CCN1CCCC1CNC(=O)c1ccc(Sc2cccc(N)c2)c([N+](=O)[O-])c1 (centres unmarked) [JCH-109, 4-((3-aminophenyl)thio)-N-((1-ethylpyrrolidin-2-yl)methyl)-3-nitrobenzamide]	
169	CCN1CCCC1CNC(=O)c1ccc(Sc2ccc(C)c(C)c2)c([N+](=O)[O-])c1 (centres unmarked) [DS-1-299, 4-((3,4-dimethylphenyl)thio)-N-((1-ethylpyrrolidin-2-yl)methyl)-3-nitrobenzamide]	
> 1000	CCN1CCCC1CNC(=O)c1ccc(Sc2ccc(F)cc2)nc1 (centres unmarked) [DS-1-209, N-((1-ethylpyrrolidin-2-yl)methyl)-6-((4-fluorophenyl)thio)nicotinamide]	
141	O=C(NCCN1CCNCC1)c1ccc(Sc2ccc(F)cc2)c([N+](=O)[O-])c1 [DS-2-129, 4-((4-fluorophenyl)thio)-3-nitro-N-(2-(piperazin-1-yl)ethyl)benzamide]	

From patent US11548894B2, “Benzamide or benzamine compounds useful as anticancer agents for the treatment of human cancers” (The Board of Regents of the University of Texas System, priority 2015, dated 2023)
